We go through one compound from patent US6869958B2, “Fused tetrahydropyridine derivatives as matrix metalloproteinase inhibitors” (Warner-Lambert Company, priority 2002, dated 2005).

Bounds are passed on as bounds.

In the experiment the target is T1, hMMP-13CD (Homo sapiens, UniProt P45452).
T1 construct: a human MMP-13 catalytic domain (“hMMP-13CD”)
The experiment in a line: Inhibition of MMP-13 catalytic domain (IC50). Conditions: human MMP-13 catalytic domain. The format is biochemical. On the procedure: Thiopeptolide substrates show virtually no decomposition or hydrolysis at or below neutral pH in the absence of a matrix metalloproteinase enzyme. A typical thiopeptolide substrate commonly utilized for assays is Ac-Pro-Leu-Gly-thioester-Leu-Leu-Gly-OEt. A 100 μL assay mixture will contain 50 mM of N-2-hydroxyethylpiperazine-N′-2-ethanesulfonic acid buffer (“HEPES,” pH 7.0), 10 mM CaCl2, 100 μM thiopeptolide substrate, and 1 mM 5,5′-dithio-bis-(2-nitro-benzoic acid) (DTNB). The thiopeptolide substrate concentration may be varied, for example from 10 to 800 μM to obtain Km and Kcat values. The change in absorbance at 405 nm is monitored on a Thermo Max microplate reader (molecular Devices, Menlo Park, Calif.) at room temperature (22° C.). […]
Some representative compounds of Formula I have been evaluated for their ability to inhibit MMP-13. Inhibitor activity versus other MMPs with the compounds may be determined using, for example, MMP-1FL, which refers to full length interstitial collagenase; MMP-2FL, which refers to full length Gelatinase A; MMP-3CD, which refers to the catalytic domain of stromelysin; MMP-7FL, which refers to full length matrilysin; MMP-9FL, which refers to full length Gelatinase B; MMP-13CD, which refers to the catalytic domain of collagenase 3; and MMP-14CD, which refers to the catalytic domain of MMP-14. […]

As a reminder, the IC50 is the concentration at which inhibition is half-maximal. Turning to `O=C(O)c1ccc(Cn2ccc3ccc(C#CCn4ccnn4)cc3c2=O)cc1` [4-[1-oxo-7-(3-[1,2,3]triazol-1-ylprop-1-ynyl)-1H-isoquinolin-2-ylmethyl]benzoic acid], the IC50 is over 50 µM.
